Experimental data reported in publication PMC5372468, “Quantitative analysis of molecular partition towards lipid membranes using surface plasmon resonance” (Scientific Reports, 2017).
Where “and” joins values, the source holds several entries; their conditions need not be identical. Identical values can stand only once. Like-named read-outs stand apart in the source and are kept apart here.

Legend:
[1] = data previously obtained; ref [25]; cited from earlier work
Text: If only Kp is desired, a simplified version of the steady-state model (equation (S23)) can be applied to the linear region in each partition plot (Fig. 2, right panel insets). We applied the steady-state model in full to determine σ for each molecule in addition to Kp. […] The σ of ENF and KTP were, respectively, 50 and 69.

[2] = partition constant towards POPC membranes, fluorescence spectroscopy, 100 nm-diameter LUV, ±SD, cited from earlier work
[3] = SPR membrane partition on L1 sensor chip, deposited POPC SUV (steady-state and dissociation models); format: physicochemical; details: 10 mM HEPES, 150 mM NaCl, pH 7.4, 25 °C; for Kp (Steady-state Model) / σ (molar lipid:solute ratio at membrane saturation, Steady-state Model): SPR Biacore X100, L1 chip, association 200 s at 5 μL/min, ±SD, three independent replicates; for Kp (Steady-state Model): POPC SUV (50 nm extrusion), 0.25-700 μM solute, equation (S22) fitted to RUS/RUL vs [S]W, full concentration range; for σ (molar lipid:solute ratio at membrane saturation, Steady-state Model) / Kp (linear partition model, equation (S23)): POPC SUV; for σ (molar lipid:solute ratio at membrane saturation, Steady-state Model): equation (S22); for Kp (linear partition model, equation (S23)): SPR, L1 chip, equation (S23) fitted to the low-concentration linear region only
Description: Lyophilized ENF and KTP were solubilized in 10 mM HEPES, 150 mM NaCl, pH 7.4 buffer to a 1 mg/mL stock solution concentration. Purified F63 stock solutions (~1 mg/mL) were prepared in the same buffer. Lyophilized HRC4 was first solubilized in DMSO to 40 mg/mL, then diluted in 10 mM HEPES, 150 mM NaCl, pH 7.4 buffer for the experiments. The final DMSO content was maintained at 2% (v/v) in all HRC4 experiments. ENF, KTP and HRC4 stock solutions were sonicated in an ultrasonic bath for a 10 min period.
Small unilamellar vesicles (SUV) suspensions were prepared as described before. Briefly, the lipid mixture was dissolved in chloroform in a round bottom flask. Chloroform was evaporated under a constant nitrogen flow. The resulting lipid film was dried in vacuum, overnight. A multilamellar vesicle suspension (MLV) was obtained after lipid film rehydration with 10 mM HEPES, 150 mM NaCl, pH 7.4 buffer and a series of 10 freeze/thaw cycles. MLV suspensions were extruded through a 50 nm track-etched polycarbonate membrane from Whatman/GE Healthcare (Maidstone, United Kingdom). Extrusion was performed in a LiposoFast-Basic plus Stabilizer setup from Avestin (Mannheim, Germany). POPC, POPC:Chol (2:1), POPC:Chol:SM […] and POPC:DPPC (1:1) mixtures were prepared. SUV hydrodynamic diameter (DH) and sample polydispersity were characterized through dynamic light scattering (DLS, Supplementary Fig. S1).
SPR experiments were carried out in a Biacore X100 apparatus from GE Healthcare. Temperature was set at 25 °C for all experiments. A 10 mM HEPES, 150 mM NaCl, pH 7.4 solution was used as running buffer for F63, ENF and KTP experiments. Alternatively, 10 mM HEPES, 150 mM NaCl, pH 7.4 containing 2% (v/v) DMSO was used for HRC4 experiments. The flow system was primed three times before initiating an experiment. The L1 sensor chip was used in all experiments. The sensor chip surface was rinsed with three injections of 20 mM CHAPS before SUV deposition. 1 mM lipid SUV samples were injected over the L1 sensor chip for 2400 s, at a 2 μL/min flow speed. Typical RU values for POPC, POPC:Chol (2:1), and POPC:Chol:SM (1:1:1) SUV depositions were ~8000, ~10000 and ~10500, respectively. Loose vesicles were removed with a 36 s injection of 10 mM NaOH at 50 μL/min. F63, ENF and KTP at defined concentrations (between 0.25 and 700 μM) were injected over pre-formed lipid vesicle-coated surfaces at 5 μL/min, for a total of 200 s (association phase). Samples were also injected at 30 μL/min to confirm the absence of mass transfer effects. Solutes were allowed to dissociate for 800 s. L1 sensor chip surface regeneration was performed with sequential injections of 20 mM CHAPS (5 μL/min for 60 s), 0.5% (w/v) SDS (5 μL/min for 60 s), 10 mM NaOH containing 20% (v/v) methanol (50 μL/min for 36 s) and 10 mM NaOH (50 μL/min for 36 s). Baseline response values were compared before and after each experiment to evaluate the effectiveness of the surface regeneration.
Raw SPR sensorgram data were collected for both lipid deposition and solute binding. SUV deposition response values were collected from sensorgrams upon reaching a stable response. For each studied molecule, association steady-state response values were collected from individual sensorgrams at t = 200 s. Dissociation response data were collected between 200 and 1000 s of each sensorgram.
The steady-state model is a mathematical approach to rigorously quantify solute membrane partition using current SPR lipid bilayer-solute association response data. The partition formalism of equation (S22), can be directly fitted to RUS/RUL vs [S]W data sets to retrieve Kp and σ values. While σ values are very important for specific applications (membrane-targeting antibiotics, for instance[25]), Kp is a fundamental membrane interaction parameter studied for both endogenous and therapeutic molecules. […]

Compound | σ (lipid:solute ratio at membrane saturation) [1] | Kp (Literature) ([2]; ref [27]) | Kp (Steady-state Model) [3] | σ (molar lipid:solute ratio at membrane saturation, Steady-state Model) [3] | Kp (linear partition model, equation (S23)) [3] | Kp (Literature) ([2]; ref [26])
omiganan | 66 | – | – | – | – | –
N=C(N)NCCC[C@H](NC(=O)[C@@H](N)Cc1ccc(O)cc1)C(=O)O [KTP, kyotorphin] | – | 0.66 × 10^3 and 0.66 (±0.23) × 10^3 | 0.10 × 10^3 and 0.10 (±0.01) × 10^3 | ~69 and 69 and 69.0 (±6.3) | 0.06 × 10^3 | –
Enfuvirtide | – | – | 6.41 × 10^3 and 6.41 (±0.50) × 10^3 | ~50 and 50 and 50.4 (±2.0) | 5.29 × 10^3 | 3.20 × 10^3 and 3.20 (±0.20) × 10^3
